The target in assay [1] is high affinity nicotinic receptors. As to the kind of experiment: Inhibition of L-[3H]nicotine binding to mouse brain membrane preparations. Also on record: species or system Mice (DBA strain). The conditions noted are these: mouse brain membranes, 2 hr incubation at 4° C., 10 nM L-[3H]nicotine, Ki calculated from IC50 by the method of Cheng et al. The procedure:
Mice (DBA strain) were maintained on a 12 hour light/dark cycle and were allowed free access to water and food supplied by Wayne Lab Blox, Madison, Wis. Animals used in the present studies were 60 to 90 days of age and weighed 20 to 25 g. Brain membrane preparations were obtained from pooled brain tissue of both males and females.
Mice were killed by cervical dislocation. Brains were removed and placed on an ice-cold platform. […] Protein was determined by the method of Lowry, et al., J. Biol. Chem., Vol. 193, pp. 265-275 (1951), using bovine serum albumin as the standard.
The binding of L-[^3 H]nicotine was measured using a modification of the method of Romano, et al., Science, Vol. 210, pp. 647-650 (1980) as described previously by Marks, et al., Mol. Pharmacol., Vol. 30, pp. 427-436 (1986). The binding of L-[^3 H]nicotine was measured using a 2 hr. incubation at 4° C. […] Nonspecific binding was determined by inclusion of 10 μM nonradioactive nicotine in the incubations. The inhibition of L-[^3 H]nicotine binding by test compounds was determined by including one of eight different concentrations of the test compound in the incubation. […] Inhibition constants (Ki values) were calculated from the IC50 values using the method of Cheng, et al., Biochem. Pharmacol., Vol. 22, pp. 3099-3108 (1973). […]

For assay [2], the system named is synaptosomes from the striatal area of rat brain. As to the kind of experiment: [3H]-dopamine release from rat striatal synaptosomes. It counts as cell-based, Sprague-Dawley rats. Particulars: 0.2 ml of a 20 μM solution of ligand, relative to an equal concentration of (S)-(-)-nicotine. Here is the method:
Dopamine release was measured by preparing synaptosomes from the striatal area of rat brain obtained from Sprague-Dawley rats generally according to the procedures set forth by Nagy, et al., J. Neurochem., Vol. 43, pp. 1114-1123 (1984). Striata from 4 rats were homogenized in 2 ml of 0.32M sucrose buffered with 5 mM HEPES (pH 7.5), using a glass-teflon tissue grinder. The homogenate was diluted to 5 ml with additional homogenization solution and centrifuged at 1000×g for 10 min. This procedure was repeated on the new pellet and the resulting supernatant was centrifuged at 12,000×g for 20 min. […] Using this method, 30 to 90 percent of the dopamine was taken up into the synaptosomes, as determined by scintillation counting following filtration through glass fiber filters soaked with 0.5 percent polyethyleneimine. […] After the addition of a 0.2 ml of a 20 μM solution of ligand, the perfusate was collected into scintillation vials at 1 min. intervals and the dopamine released was quantified by scintillation counting. Peaks of radioactivity released above background were summed and the average basal release during that time was subtracted from the total. Release was expressed as a percentage of release obtained with an equal concentration of (S)-(-)-nicotine.

We go through one compound from patent publication US5187169A, “Method for treatment of neurodegenerative diseases” (R. J. Reynolds Tobacco Company, priority 1992, dated 1993).

As for `CN1C(=O)CC[C@H]1c1cccnc1` [cotinine], the Ki in assay [1] is 3.9 µM. The “Dopamine Release” value in assay [2] is 20 Percent release relative to (S.

The Ki is a dissociation constant, usually derived from enzyme kinetics or from competition with a known ligand.
